# Laboratory results: US20240245657A1, “THIADIAZOLIDINONES FOR THEIR USE IN THE TREATMENT OF LIMB-GIRDLE MUSCULAR DYSTROPHY” (CONSEJO SUPERIOR DE INVESTIGACIONES CIENTÍFICAS, priority 2021, published 2024)
# Tests used:
# FRBZ gene, β1D integrin = conditions: primary myotubes, LiCl treatment; cited from earlier work
# GSK3 = conditions: low therapeutic dose of lithium (0.5 mM); cited from earlier work
# β-catenin = assay: Western blot of total and active β-catenin in human primary myotubes (Wnt pathway activation); assay type: cell-based; conditions: day 8 of differentiation, 48 h; for active β-catenin: tideglusib 1.2 μM, LiCl 10 mM
# Procedure: (§1) To obtain primary myoblasts, muscle biopsies were processed and cultured in monolayer according to the method described by Askanas (Neurology, 1975, 25, 58-67). To isolate the pure population of myoblasts and CD56-negative cells (CD56-), the protocol described previously (Jaka et al., Expert Reviews in Molecular Medicine, 2017, 19, e2) was used, using immunomagnetic separation based on the early presence of the surface marker CD56 (Miltenyi Biotec, 130-050-401).
# (§2) Myoblasts were cultured in proliferation medium (DMEM, M-199, Insulin, Glutamine and penicillin-streptomycin) with 10% FBS and growth factors at 37° C. in 5% CO2 air incubator. When myoblasts reached confluence, the FBS concentration was reduced to 2% and growth factors were removed from the medium, promoting fusion and production of myotubes.
# (§3) Tideglusib was provided by Dr. Ana Martínez (from The Center for Biological Research, CSIC). It was administered at 1.2 μM, whereas LiCI (Sigma-Aldrich, L7026) was used for comparative purposes at a final concentration of 10 mM. Tideglusib and LiCI were administered at the above referred concentrations to myotubes at eight days of differentiation, and tideglusib also to skin fibroblasts and to CD56-cells. Negative controls, in the case of tideglusib, were performed with DMSO (Fisher Scientific, BP-231). At 48 hours after drug administration, RNA and proteins were extracted.
# (§4) Protein collection from muscle samples and cell cultures, as well as Western blot procedure, were performed as previously described (Jaka et al., Expert Reviews in Molecular Medicine, 2017, 19, e2).
# GSK3β [1] = conditions: low dose of LiCl treatment; cited from earlier work
# p70S6K = assay: Western blot of p70S6K and its phosphorylated forms in human primary myotubes (controls and LGMDR1 patients); assay type: cell-based; conditions: 48 h; for P-p70S6K (T389), protein expression value relative to the same sample without treatment / P-p70S6K (T421-S424), protein expression value relative to the same sample without treatment: tideglusib 1.2 μM
# Procedure: as §1, §2, §3, §4
# RPS6 = assay: Western blot of P-RPS6 (Ser235/Ser236) in human primary myotubes (controls and LGMDR1 patients); assay type: cell-based; conditions: 48 h; for P-RPS6 (S235-S236), Western blot densitometry: LiCl 10 mM; for P-RPS6 (S235-S236), protein expression value relative to the same sample without treatment: tideglusib 1.2 μM
# Procedure: as §1, §2, §3, §4
# mTOR = assay: Western blot of mTOR and P-mTOR in human primary myotubes; assay type: cell-based; conditions: LGMDR1 patient's myotubes, 1.2 μM, 48 h
# Procedure: (§5) To obtain primary myoblasts, muscle biopsies were processed and cultured in monolayer according to the method described by […] (Neurology, 1975, 25, 58-67). To isolate the pure population of myoblasts and CD56-negative cells (CD56-), the protocol described previously (Jaka et al., Expert Reviews in Molecular Medicine, 2017, 19, e2) was used, using immunomagnetic separation based on the early presence of the surface marker CD56 (Miltenyi Biotec, 130-050-401). Myoblasts were cultured in proliferation medium (DMEM, M-199, Insulin, Glutamine and penicillin-streptomycin) with 10% FBS and growth factors at 37° C. in 5% CO2 air incubator. When myoblasts reached confluence, the FBS concentration was reduced to 2% and growth factors were removed from the medium, promoting fusion and production of myotubes. Tideglusib was provided by Dr. Ana Martínez (from The Center for Biological Research, CSIC). It was administered at 1.2 μM, whereas LiCI (Sigma-Aldrich, L7026) was used for comparative purposes at a final concentration of 10 mM. Tideglusib and LiCI were administered at the above referred concentrations to myotubes at eight days of differentiation, and tideglusib also to skin fibroblasts and to CD56-cells. Negative controls, in the case of tideglusib, were performed with DMSO (Fisher Scientific, BP-231). At 48 hours after drug administration, RNA and proteins were extracted. Protein collection from muscle samples and cell cultures, as well as Western blot procedure, were performed as previously described (Jaka et al., Expert Reviews in Molecular Medicine, 2017, 19, e2).
# skin fibroblasts = assay: Western blot of Wnt and mTOR pathway proteins in skin fibroblasts; assay type: cell-based, human; conditions: 1.2 μM, 48 h
# Procedure: Skin fibroblasts from healthy controls and from LGMDR1 patients were provided by Dr. Ana Aiastui (Biodonostia Health Research Institute, Cell Culture and Histology Platform). Cells were cultured in Dulbecco's modified Eagle's medium (DMEM, Gibco, 41966-029) supplemented with 10% FBS (Gibco, 10270-106) and 1% penicillin-streptomycin (Gibco, 15140-122) at 37° C. in a 5% CO2 air incubator. Human fibroblasts were cultured at a density of 4×10^4 cells/ml. Tideglusib was provided by Dr. Ana Martínez (from The Center for Biological Research, CSIC). It was administered at 1.2 μM, whereas LiCI (Sigma-Aldrich, L7026) was used for comparative purposes at a final concentration of 10 mM. Tideglusib and LiCI were administered at the above referred concentrations to myotubes at eight days of differentiation, and tideglusib also to skin fibroblasts and to CD56-cells. Negative controls, in the case of tideglusib, were performed with DMSO (Fisher Scientific, BP-231). At 48 hours after drug administration, RNA and proteins were extracted. Protein collection from muscle samples and cell cultures, as well as Western blot procedure, were performed as previously described (Jaka et al., Expert Reviews in Molecular Medicine, 2017, 19, e2).
# integrin β1D and melusin = assay: Western blot of structural (costamere) proteins in human myotubes; assay type: cell-based; conditions: 1.2 μM, 48 h
# Procedure: as §5, with “Protein collection from muscle samples and cell cultures, as well as Western blot procedure, were performed as previously described (Jaka et al., Expert Reviews in Molecular Medicine, 2017, 19, e2).” left out
# [2] = tested on: CAPN3, FOS, ANOS1 and ITGB1BP2 genes; assay: Quantitative real-time PCR of deregulated genes in LGMDR1 myotubes; assay type: cell-based, human; conditions: 1.2 μM, 48 h
# Procedure: Tideglusib was provided by Dr. Ana Martínez (from The Center for Biological Research, CSIC). It was administered at 1.2 μM, whereas LiCI (Sigma-Aldrich, L7026) was used for comparative purposes at a final concentration of 10 mM. Tideglusib and LiCI were administered at the above referred concentrations to myotubes at eight days of differentiation, and tideglusib also to skin fibroblasts and to CD56-cells. Negative controls, in the case of tideglusib, were performed with DMSO (Fisher Scientific, BP-231). At 48 hours after drug administration, RNA and proteins were extracted. RNA extraction from primary myoblast/myotubes was performed with an RNeasy Mini Kit (Qiagen). In the case of the muscle biopsies, which were snap frozen and stored at −80° C. until use, total RNA was obtained using an RNA-Plus Kit (QBiogene). The isolated RNA was reverse-transcribed to first-strand complementary DNA (cDNA) in a final volume of 50 μl using a High Capacity cDNA Reverse Transcription Kit (Applied Biosystems), according to the manufacturer's instructions. The expression levels of CAPN3, FOS, ITGB1BP2, ANOS1 and GAPDH genes in the samples were assessed by real-time quantitative PCR with TaqMan probes (Table Il below) using the ‘CFX384 Real-Time PCR Detection System’ (Bio-Rad).
# GSK3β [3] = assay: Western blot of GSK3β and P-GSK3β (Ser9) in human primary myotubes; assay type: cell-based; conditions: LGMDR1 patients' myotubes, day 8 of differentiation, 1.2 μM, 48 h
# Procedure: To isolate the pure population of myoblasts and CD56-negative cells (CD56-), the protocol described previously (Jaka et al., Expert Reviews in Molecular Medicine, 2017, 19, e2) was used, using immunomagnetic separation based on the early presence of the surface marker CD56 (Miltenyi Biotec, 130-050-401). Myoblasts were cultured in proliferation medium (DMEM, M-199, Insulin, Glutamine and penicillin-streptomycin) with 10% FBS and growth factors at 37° C. in 5% CO2 air incubator. When myoblasts reached confluence, the FBS concentration was reduced to 2% and growth factors were removed from the medium, promoting fusion and production of myotubes. Tideglusib was provided by Dr. Ana Martínez (from The Center for Biological Research, CSIC). It was administered at 1.2 μM, whereas LiCI (Sigma-Aldrich, L7026) was used for comparative purposes at a final concentration of 10 mM. Tideglusib and LiCI were administered at the above referred concentrations to myotubes at eight days of differentiation, and tideglusib also to skin fibroblasts and to CD56-cells. Negative controls, in the case of tideglusib, were performed with DMSO (Fisher Scientific, BP-231). At 48 hours after drug administration, RNA and proteins were extracted. […]
# CD56-cells = assay: Western blot of Wnt and mTOR pathway proteins in CD56- cells from muscle; assay type: cell-based, human; conditions: 1.2 μM, 48 h
# Description: as §5, with “130-050-401).” for “130-050-401). Myoblasts were cultured in proliferation medium (DMEM, M-199, Insulin, Glutamine and penicillin-streptomycin) with 10% FBS and growth factors at 37° C. in 5% CO2 air incubator. When myoblasts reached confluence, the FBS concentration was reduced to 2% and growth factors were removed from the medium, promoting fusion and production of myotubes.”
# [4] = LGMDR1 patient's myotubes, 1.2 μM
# [5] = myotubes of LGMDR1 patient 09-25
compound,measurement,setting,value
[Cl-].[Li+] [LiCl],expression of the FRBZ gene,"FRBZ gene, β1D integrin",lower levels
same,β1D adult isoform of the integrin,"FRBZ gene, β1D integrin",higher levels
same,GSK3 inhibition,GSK3,inhibit
same,myoblast fusion,GSK3,augment
same,active β-catenin,β-catenin,increase
same,GSK3β inhibition,GSK3β [1],effective in inhibiting
same,fatigue resistance in some muscles via NFAT activation,GSK3β [1],enhances
same,"P-p70S6K (T421-S424), Western blot densitometry","p70S6K; LiCl 10 mM, myotubes of LGMDR1 patient 09-21, same sample without drug 0.3",0.5
same,"P-p70S6K (T421-S424), Western blot densitometry","p70S6K; LiCl 10 mM, myotubes of LGMDR1 patient 09-24, same sample without drug 1.8",1.4
same,"P-p70S6K (T421-S424), Western blot densitometry","p70S6K; LiCl 10 mM, myotubes of LGMDR1 patient 09-25, same sample without drug 0.7",0.65
same,"P-p70S6K (T421-S424), Western blot densitometry","p70S6K; LiCl 10 mM, myotubes of control 09-23, same sample without drug 0.8",0.78
same,"P-p70S6K (T421-S424), Western blot densitometry","p70S6K; LiCl 10 mM, myotubes of control 13-07, same sample without drug 0.8",0.7
same,"proteins involved in the mTOR pathway and their phosphorylation forms (p70S6K, RPS6)","p70S6K; control and LGMDR1 patient's myotubes, LiCl 10 mM",did not provide any increase
same,"P-RPS6 (S235-S236), Western blot densitometry","RPS6; myotubes of LGMDR1 patient 09-21, same sample without drug 1.5",1.5
same,"P-RPS6 (S235-S236), Western blot densitometry","RPS6; myotubes of LGMDR1 patient 09-24, same sample without drug 3.5",3
same,"P-RPS6 (S235-S236), Western blot densitometry","RPS6; myotubes of LGMDR1 patient 09-25, same sample without drug 2.8",2.5
same,"P-RPS6 (S235-S236), Western blot densitometry","RPS6; myotubes of control 09-23, same sample without drug 3.0",3.8
same,"P-RPS6 (S235-S236), Western blot densitometry","RPS6; myotubes of control 13-07, same sample without drug 3",3
"O=c1sn(-c2cccc3ccccc23)c(=O)n1Cc1ccccc1 [Tideglusib, 4-benzyl2-naphthalen-1-yl-[1,2,4]thiadiazolidine-3,5-dione]",phosphorylation of mTOR (Ser2448),mTOR,significant increase
same,phosphorylation of mTOR (Ser2481),mTOR,significant increase
same,total mTOR,mTOR,no significant changes
same,active form of β-catenin,skin fibroblasts,did not show an increase
same,phosphorylation of GSK3β (Ser9),skin fibroblasts,did not show an increase
same,phosphorylation of RPS6,skin fibroblasts,decrease
same,β-catenin,skin fibroblasts,did not show an increase
same,integrin β1D protein,integrin β1D and melusin,increase
same,melusin protein,integrin β1D and melusin,increase
same,total β-catenin expression,β-catenin; 1.2 μM,increase
same,active β-catenin,β-catenin,increase
same,expression of ANOS1 gene,[2],increase
same,expression of CAPN3 gene,[2],increase
same,expression of FOS gene,[2],increase
same,expression of ITGB1BP2 gene,[2],increase
same,expression of total p70S6K,p70S6K; [4],increased
same,phosphorylation of p70S6K (Thr389),p70S6K; [4],increased
same,phosphorylation of p70S6K (Thr421/Ser424),p70S6K; [4],increased
same,"effect on p70S6K, its phosphorylation and P-RPS6","p70S6K; control myotubes, 1.2 μM",very slight
same,"P-p70S6K (T389), protein expression value relative to the same sample without treatment",p70S6K; [5],1.8
same,"P-p70S6K (T421-S424), protein expression value relative to the same sample without treatment",p70S6K; [5],1.8
same,"P-p70S6K (T389), protein expression value relative to the same sample without treatment",p70S6K; myotubes of control 13-05,0.85
same,"P-p70S6K (T421-S424), protein expression value relative to the same sample without treatment",p70S6K; myotubes of control 13-05,0.8
same,amount of total GSK3β,GSK3β [3],increases
same,phosphorylation of GSK3β (Ser9),GSK3β [3],increases
same,active form of β-catenin,CD56-cells,no significant alteration
same,amount of total β-catenin,CD56-cells,no significant alteration
same,mTOR,CD56-cells,no differences
same,phosphorylation of RPS6,CD56-cells,no differences
same,phosphorylation of p70S6K,CD56-cells,no differences
same,phosphorylation of RPS6 (Ser235/Ser236),RPS6; [4],increased
same,"P-RPS6 (S235-S236), protein expression value relative to the same sample without treatment",RPS6; [5],1.6
same,"P-RPS6 (S235-S236), protein expression value relative to the same sample without treatment",RPS6; myotubes of control 13-05,0.8
